Experimental data published in ChEMBL document CHEMBL1201862, “PubChem BioAssay data set” (2004).
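Where inhibition never reached the appropriate level, the endpoint shown equals the highest concentration tested. Otherwise, values were interpolated linearly from a five-concentration, 48-hour dose response in 96-well plates. GI50: concentration for 50% inhibition of growth.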 Active and inactive are the calls of the source. Cut-off read from the data, not from the text of the source: active = GI50 up to about 1.1 µM and inactive = higher.

Assays:
Assay in all cases: growth of human tumour cells (NCI), 48 h
786-0 = system: 786-0
A549 = system: A549
ACHN = system: ACHN
BT-549 = system: BT-549
CAKI-1 = system: CAKI-1
CCRF-CEM = system: CCRF-CEM
COLO 205 = system: COLO 205
DU-145 = system: DU-145
EKVX = system: EKVX
HCT-116 = system: HCT-116
HCT-15 = system: HCT-15
HL-60 = system: HL-60
HOP-62 = system: HOP-62
HT-29 = system: HT-29
Hs-578T = system: Hs-578T
IGROV-1 = system: IGROV-1
K562 = system: K562
KM12 = system: KM12
LOX IMVI = system: LOX IMVI
M14 = system: M14
MCF7 = system: MCF7
MDA-MB-231 = system: MDA-MB-231
MDA-MB-435 = system: MDA-MB-435
MDA-N = system: MDA-N
MOLT-4 = system: MOLT-4
Malme-3M = system: Malme-3M
NCI-H226 = system: NCI-H226
NCI-H23 = system: NCI-H23
NCI-H460 = system: NCI-H460
NCI-H522 = system: NCI-H522
NCI/ADR-RES = system: NCI/ADR-RES
OVCAR-3 = system: OVCAR-3
OVCAR-4 = system: OVCAR-4
OVCAR-5 = system: OVCAR-5
OVCAR-8 = system: OVCAR-8
PC-3 = system: PC-3
RPMI-8226 = system: RPMI-8226
RXF 393 = system: RXF 393
SF-268 = system: SF-268
SK-MEL-28 = system: SK-MEL-28
SK-MEL-5 = system: SK-MEL-5
SK-OV-3 = system: SK-OV-3
SN12C = system: SN12C
SNB-19 = system: SNB-19
SNB-75 = system: SNB-75
SR = system: SR
T47D = system: T47D
TK-10 = system: TK-10
U-251 = system: U-251
UACC-257 = system: UACC-257
UACC-62 = system: UACC-62
UO-31 = system: UO-31

With `O=c1[nH]c(=O)n(C2CC(O)C(CO)O2)cc1OCc1ccccc1` (configuration not stated) the GI50 (786-0) was > 100 µM (inactive), the GI50 (A549) was > 100 µM (inactive) and the GI50 (ACHN) was > 100 µM (inactive). For the same compound, the GI50 (BT-549) was > 100 µM (inactive), the GI50 (CAKI-1) was > 100 µM (inactive) and the GI50 (CCRF-CEM) was > 100 µM (inactive). The GI50 (COLO 205) was > 100 µM (inactive), the GI50 (DU-145) was > 100 µM (inactive) and the GI50 (EKVX) was > 100 µM (inactive). The GI50 (HCT-116) was > 100 µM (inactive), the GI50 (HCT-15) was over 100 µM and the GI50 (HL-60) was > 100 µM (inactive). The GI50 (HOP-62) was > 100 µM (inactive), the GI50 (HT-29) was > 100 µM (inactive) and the GI50 (Hs-578T) was > 100 µM (inactive). For the same compound, the GI50 (IGROV-1) was > 100 µM (inactive), the GI50 (K562) was > 100 µM (inactive) and the GI50 (KM12) was > 100 µM (inactive). The GI50 (LOX IMVI) was > 100 µM (inactive), the GI50 (M14) was > 100 µM (inactive) and the GI50 (MCF7) was > 100 µM (inactive). For the same compound, the GI50 (MDA-MB-231) was > 100 µM (inactive), the GI50 (MDA-MB-435) was > 100 µM (inactive) and the GI50 (MDA-N) was > 100 µM (inactive). The GI50 (MOLT-4) was > 100 µM (inactive), the GI50 (Malme-3M) was > 100 µM (inactive) and the GI50 (NCI-H226) was > 100 µM (inactive). The GI50 (NCI-H23) was > 100 µM (inactive), the GI50 (NCI-H460) was > 100 µM (inactive) and the GI50 (NCI-H522) was > 100 µM (inactive). The GI50 (NCI/ADR-RES) was > 100 µM (inactive), the GI50 (OVCAR-3) was > 100 µM (inactive) and the GI50 (OVCAR-4) was > 100 µM (inactive). The GI50 (OVCAR-5) was > 100 µM (inactive), the GI50 (OVCAR-8) was > 100 µM (inactive) and the GI50 (PC-3) was > 100 µM (inactive). For the same compound, the GI50 (RPMI-8226) was > 100 µM (inactive), the GI50 (RXF 393) was > 100 µM (inactive) and the GI50 (SF-268) was > 100 µM (inactive). The GI50 (SK-MEL-28) was > 100 µM (inactive), the GI50 (SK-MEL-5) was > 100 µM (inactive) and the GI50 (SK-OV-3) was > 100 µM (inactive). The GI50 (SN12C) was > 100 µM (inactive), the GI50 (SNB-19) was > 100 µM (inactive) and the GI50 (SNB-75) was > 100 µM (inactive). For the same compound, the GI50 (SR) was > 100 µM (inactive), the GI50 (T47D) was > 100 µM (inactive) and the GI50 (TK-10) was > 100 µM (inactive). For the same compound, the GI50 (U-251) was > 100 µM (inactive), the GI50 (UACC-257) was > 100 µM (inactive) and the GI50 (UACC-62) was > 100 µM (inactive). The GI50 (UO-31) was > 100 µM (inactive).
